Structures can show the parent of a compound that is named as a salt. Where two headings read alike, the source gives them in different places.
Tests used:
SLC25A15 = test: RNA-seq of compound-treated primary human hepatocytes, SLC25A15 expression; format: cell-based
CPS1 = test: RNA-seq of compound-treated primary human hepatocytes, CPS1 expression; format: cell-based; settings: primary human hepatocytes, triplicate (Table 19, FIG. 11)
NAGS = format: cell-based, human
ARG1 = test: RNA-seq of compound-treated primary human hepatocytes, ARG1 expression; format: cell-based; settings: primary human hepatocytes, triplicate (Table 17, FIG. 9)
ASS1 = test: RNA-seq of compound-treated primary human hepatocytes, ASS1 expression; format: cell-based; settings: primary human hepatocytes; for Fold change (Log 2) vs untreated, ASS1 expression: RNA-seq (Table 4)
urea cycle genes = test: RNA-seq of primary human hepatocytes, compounds that modulate multiple urea cycle-related genes; format: cell-based; settings: primary human hepatocytes, RNA-seq; for Up-regulated Genes: urea cycle-related genes significantly increased (Table 10)
[1] = 0.3 μM, primary human hepatocytes, triplicate (Table 21, FIG. 13)
[2] = 10 μM, primary human hepatocytes, triplicate (Table 21, FIG. 13)
[3] = primary human hepatocytes, RNA-seq (Table 6)

## N#CC(c1ccnc(OCc2ccc(CN3CCOCC3)cc2)n1)c1nc2ccccc2s1 (stereo not shown) [AS602801]
SLC25A15; 10 µM
  Relative SLC25A15 level vs Untreated (±Standard Deviation): 2.22 ± 0.24

## O=C(NOCCO)c1cc(CN2OCCCC2=O)c(F)c(F)c1Nc1ccc(I)cc1F [Compound R04987655]
CPS1; 1 μM
  Relative CPS1 level vs Untreated (±Standard Deviation): 1.46 ± 0.27
CPS1; 10 μM
  Relative CPS1 level vs Untreated (±Standard Deviation): 1.33 ± 0.21

## [H]/N=C(/N)N/C(=N/[H])NCCc1ccccc1 [Phenformin]
NAGS
  Fold change (Log 2) vs untreated, NAGS expression: 1.38 Log 2

## CC(=O)CC(c1ccccc1)c1c(O)c2ccccc2oc1=O (stereo not shown) [wafarin]
ARG1; 10 μM
  Relative ARGI level vs Untreated (±Standard Deviation): 1.33 ± 0.62

## NC(=O)c1ccc(I)c([N+](=O)[O-])c1 [Iniparib (BSI-]
NAGS
  Relative NAGS level vs Untreated (±Standard Deviation): 1.35 ± 0.27

## Cc1cc(C(=O)NOCCO)c(Nc2ccc(I)cc2F)n(C)c1=O [AZD8330]
CPS1; 0.3 μM
  Relative CPS1 level vs Untreated (±Standard Deviation): 1.33 ± 0.03
CPS1; 3 μM
  Relative CPS1 level vs Untreated (±Standard Deviation): 1.60 ± 0.24

## CCn1c(=O)c(-c2cc[nH]n2)cc2c(C)nc(N)nc21 [Voxtalisib]
ASS1; 10 μM, triplicate (Table 15, FIG. 7)
  Relative ASS1 level vs Untreated (±Standard Deviation): 1.43 ± 0.13
ARG1; 3 μM
  Relative ARGI level vs Untreated (±Standard Deviation): 1.34 ± 0.16
ARG1; 10 μM
  Relative ARGI level vs Untreated (±Standard Deviation): 1.48 ± 0.18
NAGS; [1]
  Relative NAGS level vs Untreated (±Standard Deviation): 1.35 ± 0.04
NAGS; 3 μM, primary human hepatocytes, triplicate (Table 21, FIG. 13)
  Relative NAGS level vs Untreated (±Standard Deviation): 1.33 ± 0.15
NAGS; [2]
  Relative NAGS level vs Untreated (±Standard Deviation): 1.78 ± 0.04

## CCN(CC)CCCCNc1ncc2cc(-c3cc(OC)cc(OC)c3)c(NC(=O)NC(C)(C)C)nc2n1 [PD173074]
SLC25A15; 3 μM, primary human hepatocytes, triplicate (Table 24, FIG. 16A-B)
  Relative SLC25A15 level vs Untreated (±Standard Deviation): 1.30 ± 0.12
NAGS; [2]
  Relative NAGS level vs Untreated (±Standard Deviation): 1.30 ± 0.31
CPS1; 3 μM
  Relative CPS1 level vs Untreated (±Standard Deviation): 1.35 ± 0.03

## COc1cc(Nc2ncc(F)c(Nc3ccc4c(n3)N(COP(=O)(O)O)C(=O)C(C)(C)O4)n2)cc(OC)c1OC [R788 (fostamatinib disodium hexahydrate), fostamatinib disodium hexahydrate]
Urea cycle genes
  number of urea cycle genes whose expression was significantly up-regulated: three
  Up-regulated Genes: CPS1, ARG1, SLC25A15

## O=C(NCCCNc1nc(Nc2cccc(NC(=O)N3CCCC3)c2)ncc1I)c1cccs1 [BX795]
ARG1; 3 μM
  Relative ARGI level vs Untreated (±Standard Deviation): 1.33 ± 0.43
ARG1; 10 μM
  Relative ARGI level vs Untreated (±Standard Deviation): 1.34 ± 0.41
CPS1; 3 μM
  Relative CPS1 level vs Untreated (±Standard Deviation): 1.75 ± 1.03

## O=C(N[C@H]1CN2CCC1CC2)c1cc2cccc(Cl)c2s1 [EVP-6124 (hydrochloride) (encenicline), encenicline]
NAGS; [3]
  Fold change (Log 2) vs untreated, NAGS expression: 0.75 Log 2

## O=C1CCC(N2C(=O)c3ccccc3C2=O)C(=O)N1 (stereo not shown) [Thalidomide]
Urea cycle genes
  number of urea cycle genes whose expression was significantly up-regulated: five
  Up-regulated Genes: NAGS, CPS1, ALS, OTC, ARG1
NAGS; [3]
  Fold change (Log 2) vs untreated, NAGS expression: 1.1 Log 2

## O=C1NC(=O)/C(=C/c2cccc(C(F)(F)F)c2)S1 [SMI-4a]
ASS1
  Fold change (Log 2) vs untreated, ASS1 expression: 0.69 Log 2
NAGS
  Fold change (Log 2) vs untreated, NAGS expression: 1.25 Log 2

## COc1nc(N)nc2c1ncn2[C@@H]1O[C@H](COP(=O)(N[C@@H](C)C(=O)OCC(C)(C)C)Oc2cccc3ccccc23)[C@@H](O)[C@@]1(C)O (stereo partly shown) [bms-986094 (inx-189)]
SLC25A15; primary human hepatocytes, RNA-seq (Table 8)
  Fold change (Log 2) vs untreated, SLC25A15 expression: 1.18 Log 2

## CCc1ccc(CCOc2ccc(CC3SC(=O)NC3=O)cc2)nc1 (stereo not shown) [Pioglitazone HCl]
NAGS; [1]
  Relative NAGS level vs Untreated (±Standard Deviation): 1.33 ± 0.02

## O=C(NOCCO)c1cc(CN2OCCCC2=O)c(F)c(F)c1Nc1ccc(I)cc1F [RO4987655)]
SLC25A15; 10 μM, primary human hepatocytes, triplicate (Table 24, FIG. 16A-B)
  Relative SLC25A15 level vs Untreated (±Standard Deviation): 1.31 ± 0.13

## CN1CCN(CCCN2c3ccccc3Sc3ccc(C(F)(F)F)cc32)CC1 [TFP, Trifluoperazine]
NAGS; [3]
  Fold change (Log 2) vs untreated, NAGS expression: 0.58 Log 2

## CN(C)[C@@H]1C(O)=C(C(N)=O)C(=O)[C@@]2(O)C(O)=C3C(=O)c4c(O)c(NC(=O)CN5CCCC5)cc(F)c4C[C@H]3C[C@@H]12 [TP-434 (Eravacycline), Eravacycline]
ASS1
  Fold change (Log 2) vs untreated, ASS1 expression: 0.76 Log 2
NAGS; [3]
  Fold change (Log 2) vs untreated, NAGS expression: 1.5 Log 2

Reference: US11266655B2, “Methods and compositions for treating urea cycle disorders” (Camp4 Therapeutics Corporation, priority 2019, dated 2022)
